From ChEMBL document CHEMBL1201861, “Genomics of Drug Sensitity in Cancer screening data, Wellcome Trust Sanger Institute”

Tests used:
Experiment in all cases: cells
EW-3 = format: functional, cell-based, Homo sapiens; conditions: Homo sapiens, EW-3;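 note: cell viability assay read-out, IC50 reflects inhibition of growth of the EW-3 cells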
Description: SANGER: Inhibition of human EW-3 cell growth in a cell viability assay.

KLE = format: functional, cell-based; conditions: Homo sapiens;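 note: growth inhibition of human KLE cells, read out with a cell viability assay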
Description: SANGER: Inhibition of human KLE cell growth in a cell viability assay.

LS-123 = format: functional, cell-based, Homo sapiens; conditions: Homo sapiens, LS-123
Description: SANGER: Inhibition of human LS-123 cell growth in a cell viability assay.

PSN1 = format: functional, cell-based, Homo sapiens; conditions: Homo sapiens, PSN1;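 note: suppression of growth of human PSN1 cells, read out by a cell viability assay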
Description: SANGER: Inhibition of human PSN1 cell growth in a cell viability assay.

MFM-223 = format: functional, cell-based, Homo sapiens; conditions: Homo sapiens, MFM-223
Description: SANGER: Inhibition of human MFM-223 cell growth in a cell viability assay.

MN-60 = format: functional, cell-based, Homo sapiens; conditions: Homo sapiens, MN-60;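 note: growth inhibition of the MN-60 cell line, determined with a cell viability assay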
Description: SANGER: Inhibition of human MN-60 cell growth in a cell viability assay.

GB-1 = format: functional, cell-based, Homo sapiens; conditions: Homo sapiens, GB-1;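 note: growth of GB-1 cells judged by a viability assay, IC50 marks the concentration inhibiting growth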
Description: SANGER: Inhibition of human GB-1 cell growth in a cell viability assay.

HCC1187 = format: functional, cell-based, Homo sapiens; conditions: Homo sapiens, HCC1187;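 note: growth inhibition of HCC1187 cells, read out with a cell viability assay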
Description: SANGER: Inhibition of human HCC1187 cell growth in a cell viability assay.

NCI-H720 = format: functional, cell-based, Homo sapiens; conditions: Homo sapiens, NCI-H720;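 note: growth inhibition of human NCI-H720 cells determined by a cell viability assay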
Description: SANGER: Inhibition of human NCI-H720 cell growth in a cell viability assay.

IA-LM = format: functional, cell-based; conditions: Homo sapiens;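 note: cell viability assay measuring growth inhibition of human IA-LM cells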
Description: SANGER: Inhibition of human IA-LM cell growth in a cell viability assay.

MOLT-16 = format: functional, cell-based, Homo sapiens; conditions: Homo sapiens, MOLT-16;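 note: growth inhibition of human MOLT-16 cells, read out with a cell viability assay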
Description: SANGER: Inhibition of human MOLT-16 cell growth in a cell viability assay.

KINGS-1 = format: functional, cell-based, Homo sapiens; conditions: Homo sapiens, KINGS-1;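 note: cell viability assay measuring suppression of KINGS-1 cell growth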
Description: SANGER: Inhibition of human KINGS-1 cell growth in a cell viability assay.

ML-2 = format: functional, cell-based, Homo sapiens; conditions: Homo sapiens, ML-2;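 note: growth inhibition of ML-2 cells, measured with a cell viability readout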
Description: SANGER: Inhibition of human ML-2 cell growth in a cell viability assay.

no-11 = format: functional, cell-based, Homo sapiens; conditions: Homo sapiens;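 note: growth inhibition of human NO-11 cells, read out with a cell viability assay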
Description: SANGER: Inhibition of human no-11 cell growth in a cell viability assay.

GAK = format: functional, cell-based, Homo sapiens; conditions: Homo sapiens, GAK;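 note: cell growth inhibition read out by a cell viability assay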
Description: SANGER: Inhibition of human GAK cell growth in a cell viability assay.

ATN-1 = format: functional, cell-based, Homo sapiens; conditions: Homo sapiens, ATN-1;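 note: growth inhibition of human ATN-1 cells, read out with a cell viability assay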
Description: SANGER: Inhibition of human ATN-1 cell growth in a cell viability assay.

RKO = format: functional, cell-based, Homo sapiens; conditions: Homo sapiens, RKO;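 note: growth inhibition of human RKO cells, read out with a cell viability assay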
Description: SANGER: Inhibition of human RKO cell growth in a cell viability assay.

NCI-H1650 = format: functional, cell-based, Homo sapiens; conditions: Homo sapiens, NCI-H1650;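 note: growth inhibition of human NCI-H1650 cells measured by a cell viability assay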
Description: SANGER: Inhibition of human NCI-H1650 cell growth in a cell viability assay.

CTB-1 = format: functional, cell-based, Homo sapiens; conditions: Homo sapiens, CTB-1
Description: SANGER: Inhibition of human CTB-1 cell growth in a cell viability assay.

BB30-HNC = format: functional, cell-based, Homo sapiens; conditions: Homo sapiens, BB30-HNC;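 note: growth inhibition of the cultured cell line, read out by a cell viability assay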
Description: SANGER: Inhibition of human BB30-HNC cell growth in a cell viability assay.

KARPAS-299 = format: functional, cell-based, Homo sapiens; conditions: Homo sapiens, KARPAS-299
Description: SANGER: Inhibition of human KARPAS-299 cell growth in a cell viability assay.

BB49-HNC = format: functional, cell-based, Homo sapiens; conditions: Homo sapiens, BB49-HNC;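 note: cell viability assay read-out, reported as inhibition of BB49-HNC cell growth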
Description: SANGER: Inhibition of human BB49-HNC cell growth in a cell viability assay.

D-502MG = format: functional, cell-based, Homo sapiens; conditions: Homo sapiens, D-502MG
Description: SANGER: Inhibition of human D-502MG cell growth in a cell viability assay.

SF-539 = format: functional, cell-based, Homo sapiens; conditions: Homo sapiens, SF-539;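 note: Read-out is a cell viability assay, with IC50 reflecting inhibition of cell growth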
Description: SANGER: Inhibition of human SF539 cell growth in a cell viability assay.

SNB-75 = format: functional, cell-based, Homo sapiens; conditions: Homo sapiens, SNB-75;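 note: cell viability assay measuring growth inhibition of human SNB-75 cells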
Description: SANGER: Inhibition of human SNB75 cell growth in a cell viability assay.

BV-173 = format: functional, cell-based, Homo sapiens; conditions: Homo sapiens, BV-173
Description: SANGER: Inhibition of human BV-173 cell growth in a cell viability assay.

697 = format: functional, cell-based, Homo sapiens; conditions: Homo sapiens
Description: SANGER: Inhibition of human 697 cell growth in a cell viability assay.

K5 = format: functional, cell-based, Homo sapiens; conditions: Homo sapiens, K5
Description: SANGER: Inhibition of human K5 cell growth in a cell viability assay.

U-266 = format: functional, cell-based, Homo sapiens; conditions: Homo sapiens, U-266
Description: SANGER: Inhibition of human U-266 cell growth in a cell viability assay.

NCI-H1395 = format: functional, cell-based, Homo sapiens; conditions: Homo sapiens, NCI-H1395;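 note: cell viability assay read-out quantifying reduced proliferation of human NCI-H1395 cells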
Description: SANGER: Inhibition of human NCI-H1395 cell growth in a cell viability assay.

ES5 = format: functional, cell-based, Homo sapiens; conditions: Homo sapiens, ES5;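 note: growth inhibition of human ES5 cells, read out by a cell viability assay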
Description: SANGER: Inhibition of human ES5 cell growth in a cell viability assay.

KE-37 = format: functional, cell-based, Homo sapiens; conditions: Homo sapiens, KE-37;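 note: growth inhibition of KE-37 cells, read out with a cell viability assay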
Description: SANGER: Inhibition of human KE-37 cell growth in a cell viability assay.

OCI-AML2 = format: functional, cell-based, Homo sapiens; conditions: Homo sapiens, OCI-AML2;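 note: growth inhibition of OCI-AML2 cells, read out with a cell viability assay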
Description: SANGER: Inhibition of human OCI-AML2 cell growth in a cell viability assay.

KG-1 = format: functional, cell-based, Homo sapiens; conditions: Homo sapiens, KG-1;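 note: growth inhibition of KG-1 cells, read out by a cell viability assay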
Description: SANGER: Inhibition of human KG-1 cell growth in a cell viability assay.

NB6 = format: functional, cell-based, Homo sapiens; conditions: Homo sapiens, NB6;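 note: growth inhibition of NB6 cells, read out by a cell viability assay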
Description: SANGER: Inhibition of human NB6 cell growth in a cell viability assay.

NCI-H1092 = format: functional, cell-based, Homo sapiens; conditions: Homo sapiens, NCI-H1092;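 note: cell growth inhibition measured with a cell viability assay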
Description: SANGER: Inhibition of human NCI-H1092 cell growth in a cell viability assay.

NCI-H1581 = format: functional, cell-based, Homo sapiens; conditions: Homo sapiens, NCI-H1581;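 note: cell growth inhibition read out by a viability assay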
Description: SANGER: Inhibition of human NCI-H1581 cell growth in a cell viability assay.

U-87 MG = format: functional, cell-based, Homo sapiens, U-87MG ATCC; conditions: Homo sapiens, U-87 MG;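 note: growth inhibition of the cells measured with a viability assay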
Description: SANGER: Inhibition of human U-87-MG cell growth in a cell viability assay.

COLO-668 = format: functional, cell-based, Homo sapiens; conditions: Homo sapiens, COLO-668
Description: SANGER: Inhibition of human COLO-668 cell growth in a cell viability assay.

IST-MEL1 = format: functional, cell-based, Homo sapiens; conditions: Homo sapiens, IST-MEL1;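 note: growth inhibition of the cell line, read out with a cell viability assay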
Description: SANGER: Inhibition of human IST-MEL1 cell growth in a cell viability assay.

EM-2 = format: functional, cell-based, Homo sapiens; conditions: Homo sapiens, EM-2;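 note: growth inhibition of EM-2 cells, read out with a cell viability assay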
Description: SANGER: Inhibition of human EM-2 cell growth in a cell viability assay.

MOLT-4 = format: functional, cell-based, Homo sapiens; conditions: Homo sapiens, MOLT-4;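 note: growth inhibition of MOLT-4 cells, determined with a cell viability readout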
Description: SANGER: Inhibition of human MOLT-4 cell growth in a cell viability assay.

VA-ES-BJ = format: functional, cell-based, Homo sapiens; conditions: Homo sapiens, VA-ES-BJ;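 note: growth inhibition of the VA-ES-BJ cell line, read out by a cell viability assay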
Description: SANGER: Inhibition of human VA-ES-BJ cell growth in a cell viability assay.

TE-10 = format: functional, cell-based, Homo sapiens; conditions: Homo sapiens, TE-10;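 note: growth inhibition of TE-10 cells, measured by a cell viability assay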
Description: SANGER: Inhibition of human TE-10 cell growth in a cell viability assay.

NCI-H2126 = format: functional, cell-based, Homo sapiens; conditions: Homo sapiens, NCI-H2126;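 note: growth inhibition of the cancer cell line, determined with a cell viability readout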
Description: SANGER: Inhibition of human NCI-H2126 cell growth in a cell viability assay.

NOS-1 = format: functional, cell-based, Homo sapiens; conditions: Homo sapiens, NOS-1;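 note: growth inhibition of the human NOS-1 cell line, read out with a cell viability assay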
Description: SANGER: Inhibition of human NOS-1 cell growth in a cell viability assay.

NCI-H1770 = format: functional, cell-based, Homo sapiens; conditions: Homo sapiens, NCI-H1770;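 note: growth inhibition of NCI-H1770 cells determined with a viability readout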
Description: SANGER: Inhibition of human NCI-H1770 cell growth in a cell viability assay.

NCI-H526 = format: functional, cell-based, Homo sapiens; conditions: Homo sapiens, NCI-H526;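 note: growth inhibition of the human NCI-H526 cell line, measured by a cell viability assay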
Description: SANGER: Inhibition of human NCI-H526 cell growth in a cell viability assay.

LB996-RCC = format: functional, cell-based, Homo sapiens; conditions: Homo sapiens, LB996-RCC
Description: SANGER: Inhibition of human LB996-RCC cell growth in a cell viability assay.

GT3TKB = format: functional, cell-based, Homo sapiens; conditions: Homo sapiens, GT3TKB;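 note: growth inhibition of the cell line, read out with a cell viability assay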
Description: SANGER: Inhibition of human GT3TKB cell growth in a cell viability assay.

CC1(C)CCC(c2ccc(Cl)cc2)=C(CN2CCN(c3ccc(C(=O)NS(=O)(=O)c4ccc(N[C@H](CCN5CCOCC5)CSc5ccccc5)c(S(=O)(=O)C(F)(F)F)c4)cc3)CC2)C1 [NAVITOCLAX]
IC50 (EW-3): 80.5 nM | IC50 (KLE): > 2000 nM | IC50 (LS-123): > 2000 nM | IC50 (PSN1): > 2000 nM | IC50 (MFM-223): > 2000 nM | IC50 (MN-60): > 2000 nM | IC50 (GB-1): > 2000 nM | IC50 (HCC1187): > 2000 nM | IC50 (NCI-H720): 40.1 nM | IC50 (IA-LM): > 2000 nM | IC50 (MOLT-16): 653 nM | IC50 (KINGS-1): > 2000 nM | IC50 (ML-2): 19.8 nM | IC50 (no-11): > 2000 nM | IC50 (GAK): > 2000 nM | IC50 (ATN-1): 47.3 nM | IC50 (RKO): > 2000 nM | IC50 (NCI-H1650): > 2000 nM | IC50 (CTB-1): > 2000 nM | IC50 (BB30-HNC): > 2000 nM | IC50 (KARPAS-299): > 2000 nM | IC50 (BB49-HNC): > 2000 nM | IC50 (D-502MG): > 2000 nM | IC50 (SF-539): > 2000 nM | IC50 (SNB-75): > 2000 nM | IC50 (BV-173): 23.1 nM | IC50 697: 108 nM | IC50 (K5): > 2000 nM | IC50 (U-266): > 2000 nM | IC50 (NCI-H1395): > 2000 nM | IC50 (ES5): > 2000 nM | IC50 (KE-37): 114 nM | IC50 (OCI-AML2): > 2000 nM | IC50 (KG-1): 44.9 nM | IC50 (NB6): > 2000 nM | IC50 (NCI-H1092): 103 nM | IC50 (NCI-H1581): > 2000 nM | IC50 (U-87 MG): > 2000 nM | IC50 (COLO-668): > 2000 nM | IC50 (IST-MEL1): > 2000 nM | IC50 (EM-2): 199 nM | IC50 (MOLT-4): 152 nM | IC50 (VA-ES-BJ): > 2000 nM | IC50 (TE-10): > 2000 nM | IC50 (NCI-H2126): > 2000 nM | IC50 (NOS-1): > 2000 nM | IC50 (NCI-H1770): > 2000 nM | IC50 (NCI-H526): > 2000 nM | IC50 (LB996-RCC): > 2000 nM | IC50 (GT3TKB): > 2000 nM

C/C(=C\c1csc(C)n1)[C@@H]1C[C@@H]2O[C@]2(C)CCC[C@H](C)[C@H](O)[C@@H](C)C(=O)C(C)(C)[C@@H](O)CC(=O)O1 [PATUPILONE]
IC50 (EW-3): > 32 nM | IC50 (KLE): > 32 nM | IC50 (LS-123): 0.96 nM | IC50 (PSN1): 0.173 nM | IC50 (MFM-223): > 32 nM | IC50 (MN-60): > 32 nM | IC50 (GB-1): 1.19 nM | IC50 (HCC1187): 22.6 nM | IC50 (NCI-H720): > 32 nM | IC50 (IA-LM): 0.393 nM | IC50 (MOLT-16): 3.41 nM | IC50 (KINGS-1): > 32 nM | IC50 (ML-2): 2.46 nM | IC50 (no-11): > 32 nM | IC50 (GAK): 13.5 nM | IC50 (ATN-1): 3.47 nM | IC50 (RKO): 0.0647 nM | IC50 (NCI-H1650): 9.54 nM | IC50 (CTB-1): 8.31 nM | IC50 (BB30-HNC): 0.201 nM | IC50 (KARPAS-299): > 32 nM | IC50 (BB49-HNC): > 32 nM | IC50 (D-502MG): > 32 nM | IC50 (SF-539): 2.27 nM | IC50 (SNB-75): 3.01 nM | IC50 (BV-173): > 32 nM | IC50 697: 1.78 nM | IC50 (K5): 5.59 nM | IC50 (U-266): 9.72 nM | IC50 (NCI-H1395): > 32 nM | IC50 (ES5): > 32 nM | IC50 (KE-37): 1.91 nM | IC50 (OCI-AML2): 3.07 nM | IC50 (KG-1): 5.1 nM | IC50 (NB6): 17.5 nM | IC50 (NCI-H1092): > 32 nM | IC50 (NCI-H1581): > 32 nM | IC50 (U-87 MG): 21.8 nM | IC50 (COLO-668): > 32 nM | IC50 (IST-MEL1): 4.06 nM | IC50 (EM-2): > 32 nM | IC50 (MOLT-4): 2.52 nM | IC50 (VA-ES-BJ): 4.35 nM | IC50 (TE-10): 0.719 nM | IC50 (NCI-H2126): 15.6 nM | IC50 (NOS-1): 2.72 nM | IC50 (NCI-H1770): 0.907 nM | IC50 (NCI-H526): 7.24 nM | IC50 (LB996-RCC): 6.03 nM | IC50 (GT3TKB): 0.655 nM
